# Measured values as given in patent publication US20260283922A1, “Particles of Hydrophobic-Chain-Modified Monosaccharides and Cyclodextrin” (PARIS SCIENCES ET LETTRES, priority 2023, published 2026).
# What was measured:
# [1] = Solubility study of ML; assay type: physicochemical; conditions: without α-CD, before stirring
# Description: The solubility study of ML was carried out in water, methanol and methanol/chloroform mixture 1/1 v/v. In 10 mL glass vials, 10 mg of ML were added to 500 μL of solvent and left under magnetic stirring at 300 rpm at 25° C.
# [2] = Thermogravimetric analysis; assay type: physicochemical; conditions: α-CD value at 420° C.
# Description: The thermal behavior of ML/α-CD at 5 mg·mL^−1 and 70 mg·mL^−1 respectively and uncomplexed α-CD were studied using thermogravimetric analysis (FIG. 14).
Compound,solubility of ML in water [1],residual mass percentage [2] [%]
"CCCCCCCCCCCCCCCCCC(=O)NCCCO[C@H]1O[C@H](CO)[C@@H](O)[C@H](O)[C@@H]1O [ML, 3-octadecanoylamino-α-D mannopyranoside]",insoluble,–
"OC[C@H]1O[C@@H]2O[C@H]3[C@H](O)[C@@H](O)[C@@H](O[C@H]4[C@H](O)[C@@H](O)[C@@H](O[C@H]5[C@H](O)[C@@H](O)[C@@H](O[C@H]6[C@H](O)[C@@H](O)[C@@H](O[C@H]7[C@H](O)[C@@H](O)[C@@H](O[C@H]1[C@H](O)[C@H]2O)O[C@@H]7CO)O[C@@H]6CO)O[C@@H]5CO)O[C@@H]4CO)O[C@@H]3CO [α-CD, alpha-cyclodextrin]",–,0
